From patent publication US20250304620A1, “ANTIMICROBIAL PEPTIDE AND APPLICATION THEREOF” (priority 2023, published 2025)
Marks after values point to notes of the source that are not given here. Non-standard residues stand in square brackets, D forms with d. PEG2000 = polyethylene glycol 2000, conjugated to the N-terminus; PEG4000 = polyethylene glycol 4000, conjugated to the C-terminus; PEG200 = polyethylene glycol 200, conjugated to the C-terminus; PEG500 = polyethylene glycol 500, conjugated to the C-terminus; 2Nal = N[C@@H](Cc1ccc2ccccc2c1)C(=O)O; PEG1000 = polyethylene glycol 1000

Assays:
[1] = tested on: Staphylococcus aureus (NRS 384); experiment: microbe, parasite or virus in culture; type: cell-based; settings: Staphylococcus aureus (NRS 384)
Procedure, shortened: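 MICs were read against S. aureus strain NRS 384 using twofold serial dilution by CLSI microdilution rules. Levofloxacin and Cbf-K16 were the reference controls, and the test was repeated 5 times in parallel.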

[2] = tested on: Methicillin-resistant Staphylococcus aureus (MRSA); type: cell-based; settings: drug-resistant strain MRSA
From the text: (§1) According to the Standards of Clinical and Laboratory Standards Institute (CLSI) of the USA for antimicrobial drug susceptibility test operation standards, the micronutrient serial twofold dilution method was used further determine MICs of the antimicrobial peptides LV-1 to LV-30 against 5 clinically common drug-resistant bacterial strains. The experiment was repeated 5 times in parallel. […] The tested drug-resistant strains included Methicillin-resistant Staphylococcus aureus (MRSA), carbapenem-resistant Escherichia coli (CREC), vancomycin-resistant Enterococcus (VRE), carbapenem-resistant Pseudomonas aeruginosa (CRPA), and carbapenem-resistant Klebsiella pneumoniae (CRKP).

[3] = tested on: carbapenem-resistant Klebsiella pneumoniae (CRKP); type: cell-based; settings: drug-resistant strain CRKP
From the text: as §1

[4] = tested on: carbapenem-resistant Escherichia coli (CREC); type: cell-based; settings: drug-resistant strain CREC
From the text: as §1

[5] = tested on: vancomycin-resistant Enterococcus (VRE); type: cell-based; settings: drug-resistant strain VRE
From the text: as §1

[6] = tested on: carbapenem-resistant Pseudomonas aeruginosa (CRPA); type: cell-based; settings: drug-resistant strain CRPA
From the text: as §1

[7] = tested on: Staphylococcus aureus (NRS 384); settings: MIC vs Staphylococcus aureus (NRS 384) after trypsin treatment 1:10 (w/w), 37° C., 3 h
Description: Trypsin (250 U/mg, pH=8.0) and AMPs (LV-1 to LV-30) were mixed in a ratio of 1:10 (w/w) and added to a reaction buffer (0.2 M sodium phosphate, 1 mM CaCl2), pH 7.5), and then incubated at 37° C. for 3 h.

[8] = tested on: Escherichia coli ATCC 25922; experiment: Oral formulations on mice with systemic bacterial infection; type: in vivo, ICR mice; settings: three times a day for 7 days; for Number of mice that died on each day after infection: day 4 / Number of mice that died on each day after infection: day 5 / Number of mice that died on each day after infection: day 6 / Number of mice that died on each day after infection: day 7 / Number of mice that died on each day after infection: day 8 / Average survival times (Days): n = 10; for Average survival times (Days): observed for 14 d
Description: Both female and male ICR mice were used in the test, half of the female and male mice were taken and randomly assigned into groups, with 10 mice in each group, and kept in separate cages. The mice were divided into a blank control group, a negative control group, a positive control Levofloxacin group, and AMPs LV-1 to LV-30 groups. An Escherichia coli ATCC 25922 bacterial suspension was prepared, a concentration of the suspension was adjusted 1×10^7 CFU/mL for subsequent use. Except for the blank control group, all other mice were injected with the Escherichia coli suspension (0.2 mL, 1×10^7 CFU/mL), into abdominal cavity of the mice, to establish a model. After the model was successfully established, the mice were given drug immediately according to their body weights. Except for the blank control group and the negative control group, the mice in all other groups were gavaged with different compounds, three times a day for 7 consecutive days. The mice were then observed for 14 d. The death of mice in each group was observed, and survival time of the mice was recorded. Results of the effect of the oral formulations of AMPs LV-1 to LV-30 on the survival time of mice infected with Escherichia coli are shown in Table 11.

[9] = tested on: Shigella flexneri ATCC 12022; experiment: MIC against clinically common bacterial strain; type: cell-based
From the text: (§2) According to the Standards of Clinical and Laboratory Standards Institute (CLSI) of the USA for antimicrobial drug susceptibility test operation standards, the micronutrient serial twofold dilution method was used further determine MICs of 30 AMPs (S/N: LV-1 to LV-30) 10 clinically common sensitive strains and 6 fungi in clinical practice. The experiment was repeated 5 times in parallel.

[10] = tested on: Corynebacterium ATCC 7715; type: cell-based
From the text: as §2

[11] = tested on: Trichophyton ATCC MYA-4438; type: cell-based
From the text: as §2

[12] = tested on: Candida glabrata ATCC 15126; type: cell-based
From the text: as §2

Candida krusei ATCC 6258 = type: cell-based
From the text: as §2

Substance | MIC against Staphylococcus aureus (NRS 384) [1] | MIC MRSA [2] | MIC CRKP [3] | MIC CREC [4] | MIC VRE [5] | MIC CRPA [6] | Trypsin MIC [7] | Number of mice that died on each day after infection: day 4 ([8]; 1 mg/kg gavage) | Number of mice that died on each day after infection: day 5 ([8]; 1 mg/kg gavage) | Number of mice that died on each day after infection: day 6 ([8]; 1 mg/kg gavage) | Number of mice that died on each day after infection: day 7 ([8]; 1 mg/kg gavage) | Number of mice that died on each day after infection: day 8 ([8]; 1 mg/kg gavage) | Average survival times (Days) ([8]; 1 mg/kg gavage) | MIC Shigella flexneri ATCC 12022 [9] | MIC Corynebacterium ATCC 7715 [10] | MIC Trichophyton ATCC MYA-4438 [11] | MIC Candida glabrata ATCC 15126 [12] | MIC Candida krusei ATCC 6258 (Candida krusei ATCC 6258) | further results
PEG2000-RKLLXRLKXRK-NH2 [LV-29] (PEG2000-RKLL[2Nal]RLK[2Nal]RK-NH2) [polyethylene glycol 2000 conjugated to N-terminal; X=3-(2-naphthyl)-alanine] | 1 µg/mL | 4 µg/mL | 8 µg/mL | 8 µg/mL | 4 µg/mL | 4 µg/mL | 1 µg/mL | 0 Mouse | 1 Mouse | 2 Mouse | 1 Mouse | 1 Mouse | 10.2*** Days | 4 µg/mL | 16 µg/mL | 16 µg/mL | 8 µg/mL | 8 µg/mL | 
Ac-RKLLXRLKXRK-PEG4000 [LV-30] (Ac-RKLL[2Nal]RLK[2Nal]RK-PEG4000) [polyethylene glycol 4000 conjugated to C-terminal; X=3-(2-naphthyl)-alanine] | 1 µg/mL | 8 µg/mL | 4 µg/mL | 4 µg/mL | 4 µg/mL | 8 µg/mL | 1 µg/mL | 1 Mouse | 1 Mouse | 3 Mouse | 0 Mouse | 1 Mouse | 9.1** Days | 2 µg/mL | 8 µg/mL | 8 µg/mL | 16 µg/mL | 16 µg/mL | 
Ac-RKLLXRLKXRK-PEG200 [LV-26] (Ac-RKLL[2Nal]RLK[2Nal]RK-PEG200) [polyethylene glycol 200 conjugated to C-terminal; X=3-(2-naphthyl)-alanine] | 1 µg/mL | 4 µg/mL | 2 µg/mL | 8 µg/mL | 2 µg/mL | 4 µg/mL | 1 µg/mL | 2 Mouse | 1 Mouse | 0 Mouse | 1 Mouse | 1 Mouse | 9.8** Days | 4 µg/mL | 2 µg/mL | 16 µg/mL | 8 µg/mL | 4 µg/mL | 
Ac-RKLLXRLKXRK-PEG1000 [LV-28] (Ac-RKLL[2Nal]RLK[2Nal]RK-PEG1000) [polyethylene glycol 1000 conjugated to C-terminal; X=3-(2-naphthyl)-alanine] | 1 µg/mL | 4 µg/mL | 4 µg/mL | 4 µg/mL | 4 µg/mL | 8 µg/mL | 1 µg/mL | 1 Mouse | 2 Mouse | 1 Mouse | 1 Mouse | 0 Mouse | 9.7** Days | 4 µg/mL | 8 µg/mL | 8 µg/mL | 8 µg/mL | 4 µg/mL | 
Ac-RKLLXRLKXRK-PEG500 [LV-27] (Ac-RKLL[2Nal]RLK[2Nal]RK-PEG500) [polyethylene glycol 500 conjugated to C-terminal; X=3-(2-naphthyl)-alanine] | 1 µg/mL | 8 µg/mL | 4 µg/mL | 4 µg/mL | 8 µg/mL | 4 µg/mL | 1 µg/mL | 0 Mouse | 1 Mouse | 1 Mouse | 0 Mouse | 1 Mouse | 11.7**** Days | 2 µg/mL | 8 µg/mL | 8 µg/mL | 8 µg/mL | 8 µg/mL | Number of mice that died on each day after infection: day 4 ([8]; 0.2 mg/kg gavage): 1 Mouse; Number of mice that died on each day after infection: day 5 ([8]; 0.2 mg/kg gavage): 1 Mouse; Number of mice that died on each day after infection: day 6 ([8]; 0.2 mg/kg gavage): 2 Mouse; Number of mice that died on each day after infection: day 7 ([8]; 0.2 mg/kg gavage): 1 Mouse; Number of mice that died on each day after infection: day 8 ([8]; 0.2 mg/kg gavage): 0 Mouse; Average survival times (Days) ([8]; 0.2 mg/kg gavage): 9.8** Days; Number of mice that died on each day after infection: day 4 ([8]; 5 mg/kg gavage): 0 Mouse; Number of mice that died on each day after infection: day 5 ([8]; 5 mg/kg gavage): 2 Mouse; Number of mice that died on each day after infection: day 6 ([8]; 5 mg/kg gavage): 1 Mouse; Number of mice that died on each day after infection: day 7 ([8]; 5 mg/kg gavage): 0 Mouse; Number of mice that died on each day after infection: day 8 ([8]; 5 mg/kg gavage): 0 Mouse; Average survival times (Days) ([8]; 5 mg/kg gavage): 11.4**** Days; survival time of mice infected with Escherichia coli ([8]; gavage, observed 14 d): superior to those of the Levofloxacin group
